Like-named read-outs stand apart in the source and are kept apart here.
Legend:
[1] = Dissociation constants by spectrophotometric titration; format: physicochemical; details: 20°C; for pKa: ultrapure water
Description: The spectrophotometric titration was used for dissociation constants’ determination, utilizing spectrophotometer Agilent Cary-60 (Agilent Technologies, CA, USA), pH meter WTW InoLab_IDS Multi 9430 (WTW, Czech Republic), and pH electrode SenTix® Mic (WTW, Czech Republic). Data were analyzed by GraphPadPrism 8.0 software (GraphPad Software, CA, USA). The analyzed samples were prepared by adding 20 μL of compound stock solution (2 mg/mL) and 20 μL of 0.1 M hydrochloric acid into the cuvette with ultrapure water (total volume 3.5 mL). The samples were titrated by 0.1 M sodium hydroxide at 20°C while acquiring absorption spectra (190–500 nm) at different pH values. Absorbance at the chosen wavelength was plotted as a function of pH. The inflection point in the given plot was used for pKa value determination.

[2] = tested on: mTORC1 substrate p70 S6 kinase (Thr389 phosphorylation); assay: Immunoblot of phospho-p70 S6K (Thr389), mTORC1 activity in cells; format: cell-based, human; details: for effect on Thr389 S6K phosphorylation / effect on p70 S6K phosphorylation: 100 μM
C57BL/6 (B6) male mice [3] = assay: In vivo tolerability study (behaviour, signs of toxicity, body weight)
Description: C57BL/6 (B6) male mice, 8–12 weeks old, were obtained from the Institute of Molecular Genetics, Prague, Czech Republic. Experimental protocols were approved by the Institutional Animal Care Committee of the Institute of Molecular Genetics, Prague.
Compounds were dissolved in 20 μL DMSO and completed into 200 μL with corn oil.
(§1) During the experiments, mice behavior and possible apparent signs of toxicity were monitored daily. The body weights were determined on days 0, 4, and 8. On day 8, blood (25 μL) was withdrawn using a capillary pipette containing anticoagulant (heparin) from the retroorbital sinus into EDTA-containing tubes. Basic hematological parameters were measured using the Mindray BC-5300 Vet. Mice were then killed, autopsied, and abdominal organs (spleen, liver, and kidney) were removed for visual examination and imaging by a digital camera. Single-cell suspensions from the spleens were prepared by homogenization through a cell strainer (70 μm; BD Biosciences, San Jose, CA, USA). Erythrocytes were osmotically lysed using ammonium chloride-potassium lysis buffer, and the cell suspensions were washed three times in the RPMI-1640 medium and used for further analysis by flow cytometry for selected cell populations.

[4] = tested on: pro-inflammatory cytokines of SASP; assay: Secretion of pro-inflammatory cytokines (SASP) by senescent cells; format: cell-based, human; details: 50 μM, 24 h; for all detectable cytokines (IL-1α, IL-1β, IL-6, IL-8, IL-27, MCP-1, TNFα): TMZ-induced U87 senescent cells
Description: To determine the secretion of selected inflammatory cytokines into culture media, cell cultures were exposed to tested compounds (50 μM) for 24 h. Then the culture medium was removed, cells were washed three times with 1 mL PBS, and a fresh medium without FBS was added for 24 h. Detection of cytokines in conditioned culture media was done by Human Inflammation 11-Plex Panel: IFNγ, IL-1α, IL-1β, IL-6, IL-8, IL-10, IL-12p70, IL-27, IP-10, MCP-1, and TNFα (AimPlex Biosciences, Inc.) using a BD FACSVerseTM flow cytometer (BD Biosciences, Franklin Lakes, NJ, USA) according to manufacturer’s protocol. Data were analyzed using FlowJo 10 software (FlowJo LLC, Ashland, OR, USA).
Importantly, compound 3 decreased IL-1α, IL-8, and MCP-1 consistently in all tested senescence models. The effect of compound 3 on IL-6 was variable.

C57BL/6 (B6) male mice [5] = assay: Spleen cell populations by flow cytometry in the tolerability study; format: in vivo; details: for CD4+ spleen cells / CD8+ spleen cells / Cd11b+/Gr-1+ spleen cells: percentage from the CD45+ cells
Description: as §1
The cellularity of selected spleen cell populations was analyzed by flow cytometry. Cell suspensions were washed and preincubated with anti-CD16/CD32 (2.4G2) antibody to minimize non-specific binding at 4°C for 15 min following the washing step and incubation with labeled primary antibody at 4°C for 30 min. Relevant isotype controls of irrelevant specificity were used. FACS buffer (PBS, 1% FBS, 0.1% NaN3) was used for all washing steps and analysis. The following antibodies were used for FACS analyses: BV421 anti-mouse CD45 (30-F11), PE anti-mouse CD8α (53-6.7), BV711 anti-mouse CD4 (RM4-5), APC anti-mouse Ly-6g/Ly-6C (Gr-1) (RB6-8C5), BV711 anti-mouse CD11b (M1/70). FACS analysis was performed using a flow cytometer Symphony (BD Biosciences) and analyzed using FlowJo 10 software (FlowJo LLC, Ashland, OR, USA).

[6] = Shake-flask partition coefficient logP and distribution coefficient logD (pH 7.4); format: physicochemical; details: for logD: n-octanol/sodium phosphate buffer pH 7.4; for logP: n-octanol/water
Description: Before the initiation of the intended experiments, all solvents were mutually saturated at 21°C. […] For saturation, large stock bottles containing n-octanol and 12% of water/buffer or water/buffer and 12% of n-octanol were shaken for 30 mins on a mechanical shaker and subsequently left to stand on the bench overnight until the phases separated. Approximately 0.50 mg of tested substance was added to the test vessels alongside with 1:1 volume ratio of saturated solvents (250 μL). The test vessels were shaken on the mechanical shaker (Multi Reax, Heidolph Instruments, Schwabach, Germany) for 30 min at the highest speed and then centrifuged for phase separation (16.873 × g for 5 min; Eppendorf 5418 Microcentrifuge, Prague, Czech Republic). Both organic and aqueous phases were sampled for LC-MS analysis. UHPLC-DAD-MS (UHPLC Infinity II 1290, detection by DAD and QqQ 6470; Agilent Technologies, CA, USA; separation on Arion C18 polar column 100 × 2.1 mm, 2.1 μm; Chromservis, Czech Republic) was used for determination of the exact concentration of tested substances. The total quantity of substance (in both phases) was used for logP/logD values calculation.

[7] = p.o. 5, 25 and 50 mg/kg body weight, days 0, 3, 5
[8] = all tested senescence models (DIS-BJ, IR-RPE-1, TMZ-U87)
[9] = 5 mg/kg p.o. days 0, 3, 5, spleen day 8
[10] = 25 mg/kg p.o. days 0, 3, 5, spleen day 8
[11] = 50 mg/kg p.o. days 0, 3, 5, spleen day 8

Structure (SMILES): Nc1ccc(C(=O)Nc2cccc(-c3c[nH]c4ncccc34)c2)cc1O [Compound 3, N-(3-(1H-pyrrolo[2,3-b]pyridin-3-yl)phenyl)-4-amino-3-hydroxybenzamide]
- pKa ([1]; read-out: pKa1): 3.6 ± 0.29
- pKa ([1]; read-out: pKa2): 7.91 ± 0.15
- effect on Thr389 S6K phosphorylation ([2]; BJ cells, 1 and 5 h): inhibitory effect
- effect on Thr389 S6K phosphorylation ([2]; DU-145, 1 and 5 h): no effect
- effect on Thr389 S6K phosphorylation ([2]; H1299, 1 and 5 h): Marked but transient inhibition
- effect on Thr389 S6K phosphorylation ([2]; MDA-MB-231, 1 and 5 h): Marked but transient inhibition
- effect on Thr389 S6K phosphorylation ([2]; RPE-1, 1 and 5 h): no effect
- effect on Thr389 S6K phosphorylation ([2]; T98, 1 and 5 h): Marked but transient inhibition
- effect on Thr389 S6K phosphorylation ([2]; U87, after 1 h, reasonable level also after 5 h): most potent inhibitory effect
- effect on p70 S6K phosphorylation ([2]; docetaxel-induced senescent BJ, 1 and 5 h): robust effect
- effect on p70 S6K phosphorylation ([2]; ionizing radiation-induced senescent RPE-1, 1 and 5 h): less pronounced effect
- concentration from which inhibition of S6K phosphorylation is apparent ([2]; proliferating BJ cells, 0–100 μM, after 5 h-long exposure): 6.25 µM
- effect on p70 S6K phosphorylation ([2]; temozolomide-induced senescent U87, 1 and 5 h): less pronounced effect
- symptoms of intoxication (C57BL/6 (B6) male mice [3]; 50 mg/kg body weight, perorally): did not exert any symptoms of intoxication
- changes in mice behavior and body weights (C57BL/6 (B6) male mice [3]; [7]): no changes
- signs of whole body or organ toxicities (C57BL/6 (B6) male mice [3]; [7]): no apparent signs
- IL-6 level in conditioned medium ([4]; DIS-BJ senescent cells): apparent decrease
- IL-6 level in conditioned medium ([4]; TMZ-U87 senescent cells): apparent decrease
- all detectable cytokines (IL-1α, IL-1β, IL-6, IL-8, IL-27, MCP-1, TNFα) [4]: suppressed
- IL-1α level in conditioned medium [4, 8]: decreased
- IL-8 level in conditioned medium [4, 8]: decreased
- MCP-1 level in conditioned medium [4, 8]: decreased
- CD45+ spleen cells (C57BL/6 (B6) male mice [5]; [9]): 94.3%
- CD4+ spleen cells (C57BL/6 (B6) male mice [5]; 5 mg/kg p.o.): 19.0%
- CD8+ spleen cells (C57BL/6 (B6) male mice [5]; 5 mg/kg p.o.): 11.4%
- Cd11b+/Gr-1+ spleen cells (C57BL/6 (B6) male mice [5]; 5 mg/kg p.o.): 0.7%
- CD45+ spleen cells (C57BL/6 (B6) male mice [5]; [10]): 95.9%
- CD4+ spleen cells (C57BL/6 (B6) male mice [5]; 25 mg/kg p.o.): 15.9%
- CD8+ spleen cells (C57BL/6 (B6) male mice [5]; 25 mg/kg p.o.): 9.6%
- Cd11b+/Gr-1+ spleen cells (C57BL/6 (B6) male mice [5]; 25 mg/kg p.o.): 1.0%
- CD45+ spleen cells (C57BL/6 (B6) male mice [5]; [11]): 97.2%
- CD4+ spleen cells (C57BL/6 (B6) male mice [5]; 50 mg/kg p.o.): 16.0%
- CD8+ spleen cells (C57BL/6 (B6) male mice [5]; 50 mg/kg p.o.): 9.8%
- Cd11b+/Gr-1+ spleen cells (C57BL/6 (B6) male mice [5]; 50 mg/kg p.o.): 0.8%
- logD ([6]; n-octanol/sodium phosphate buffer, pH 7.4, shake-flask, read-out: logD): 2.15 ± 0.02
- logP ([6]; shake-flask, read-out: logP): 2.08 ± 0.07

Structure (SMILES): CC(C)n1nc(-c2cc3cc(O)ccc3[nH]2)c2c(N)ncnc21 [Torkinib, torkinib]
- pKa1 [1]: 3.96 ± 0.02
- pKa2 [1]: 10.37 ± 0.18
- effect on Thr389 S6K phosphorylation ([2]; BJ cells, 1 and 5 h): inhibitory effect
- signs of whole body or organ toxicities (C57BL/6 (B6) male mice [3]; [7]): no apparent signs
- all detectable cytokines (IL-1α, IL-1β, IL-6, IL-8, IL-27, MCP-1, TNFα) [4]: suppressed
- CD45+ spleen cells (C57BL/6 (B6) male mice [5]; [9]): 92.0%
- CD4+ spleen cells (C57BL/6 (B6) male mice [5]; 5 mg/kg p.o.): 15.5%
- CD8+ spleen cells (C57BL/6 (B6) male mice [5]; 5 mg/kg p.o.): 10.4%
- Cd11b+/Gr-1+ spleen cells (C57BL/6 (B6) male mice [5]; 5 mg/kg p.o.): 0.9%
- CD45+ spleen cells (C57BL/6 (B6) male mice [5]; [10]): 96.7%
- CD4+ spleen cells (C57BL/6 (B6) male mice [5]; 25 mg/kg p.o.): 15.4%
- CD8+ spleen cells (C57BL/6 (B6) male mice [5]; 25 mg/kg p.o.): 9.8%
- Cd11b+/Gr-1+ spleen cells (C57BL/6 (B6) male mice [5]; 25 mg/kg p.o.): 0.6%
- CD45+ spleen cells (C57BL/6 (B6) male mice [5]; [11]): 84.0%
- CD4+ spleen cells (C57BL/6 (B6) male mice [5]; 50 mg/kg p.o.): 16.6%
- CD8+ spleen cells (C57BL/6 (B6) male mice [5]; 50 mg/kg p.o.): 10.2%
- Cd11b+/Gr-1+ spleen cells (C57BL/6 (B6) male mice [5]; 50 mg/kg p.o.): 1.3%
- logD ([6]; shake-flask): 2.75 ± 0.06
- logP ([6]; shake-flask): 2.65 ± 0.02
